System: plants
Assay: Test D post-emergence, other plants of Tables D2 and D4
Format: in vivo
Settings: for ALOMY damage rating (100=total damage to plant; 0=no damage to plant) / AVEFA damage rating (100=total damage to plant; 0=no damage to plant) / BEAVA damage rating (100=total damage to plant; 0=no damage to plant) / BROTE damage rating (100=total damage to plant; 0=no damage to plant) / BRSNN damage rating (100=total damage to plant; 0=no damage to plant) / CHEAL damage rating (100=total damage to plant; 0=no damage to plant) / GALAP damage rating (100=total damage to plant; 0=no damage to plant) / HORVW damage rating (100=total damage to plant; 0=no damage to plant) / KCHSC damage rating (100=total damage to plant; 0=no damage to plant) / LOLPE damage rating (100=total damage to plant; 0=no damage to plant) / POAAN damage rating (100=total damage to plant; 0=no damage to plant) / POLCO damage rating (100=total damage to plant; 0=no damage to plant) / STEME damage rating (100=total damage to plant; 0=no damage to plant) / VERPE damage rating (100=total damage to plant; 0=no damage to plant): "Cereals" Postemergent, evaluated after 15 d; for damage to plant (100=total damage to plant; 0=no damage to plant), ABUTH / damage to plant (100=total damage to plant; 0=no damage to plant), AMARE / damage to plant (100=total damage to plant; 0=no damage to plant), BIDPI: post-emergence
Method in brief: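 Seeds treated with herbicide safener; sown in soil; glasshouse, 16 h light, 65% humidity. Sprayed day 1 (pre) or ~day 12 (post). Spray in 0.2% v/v adjuvant. Scored 0–100 damage: 20 DAA pre, 15 d post.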

CCn1nc([C@@H]2CN(C)C(=O)[C@H]2C(=O)Nc2cccc(F)c2F)c2cccc(F)c21 [Compound 14]
70: ALOMY damage rating (100=total damage to plant; 0=no damage to plant) (Rates 500) | AVEFA damage rating (100=total damage to plant; 0=no damage to plant) (Rates 250) | HORVW damage rating (100=total damage to plant; 0=no damage to plant) (Rates 250) | HORVW damage rating (100=total damage to plant; 0=no damage to plant) (Rates 500) | STEME damage rating (100=total damage to plant; 0=no damage to plant) (Rates 500)
80: AVEFA damage rating (100=total damage to plant; 0=no damage to plant) (Rates 500) | POAAN damage rating (100=total damage to plant; 0=no damage to plant) (Rates 130)
60: ALOMY damage rating (100=total damage to plant; 0=no damage to plant) (Rates 250) | VERPE damage rating (100=total damage to plant; 0=no damage to plant) (Rates 500)
30: AVEFA damage rating (100=total damage to plant; 0=no damage to plant) (Rates 130) | BEAVA damage rating (100=total damage to plant; 0=no damage to plant) (Rates 130) | BEAVA damage rating (100=total damage to plant; 0=no damage to plant) (Rates 250) | BROTE damage rating (100=total damage to plant; 0=no damage to plant) (Rates 500) | POLCO damage rating (100=total damage to plant; 0=no damage to plant) (Rates 250) | damage to plant (100=total damage to plant; 0=no damage to plant), AMARE (rate 500, evaluated after 15 d) | damage to plant (100=total damage to plant; 0=no damage to plant), BIDPI (rate 500, evaluated after 15 d)
10: BROTE damage rating (100=total damage to plant; 0=no damage to plant) (Rates 250) | GALAP damage rating (100=total damage to plant; 0=no damage to plant) (Rates 250) | KCHSC damage rating (100=total damage to plant; 0=no damage to plant) (Rates 130) | damage to plant (100=total damage to plant; 0=no damage to plant), ABUTH (rate 500, evaluated after 15 d) | damage to plant (100=total damage to plant; 0=no damage to plant), BIDPI (rate 130, evaluated after 15 d)
50: BRSNN damage rating (100=total damage to plant; 0=no damage to plant) (Rates 250) | CHEAL damage rating (100=total damage to plant; 0=no damage to plant) (Rates 130) | LOLPE damage rating (100=total damage to plant; 0=no damage to plant) (Rates 500) | STEME damage rating (100=total damage to plant; 0=no damage to plant) (Rates 250) | VERPE damage rating (100=total damage to plant; 0=no damage to plant) (Rates 130) | VERPE damage rating (100=total damage to plant; 0=no damage to plant) (Rates 250)
20: BEAVA damage rating (100=total damage to plant; 0=no damage to plant) (Rates 500) | GALAP damage rating (100=total damage to plant; 0=no damage to plant) (Rates 500) | HORVW damage rating (100=total damage to plant; 0=no damage to plant) (Rates 130) | KCHSC damage rating (100=total damage to plant; 0=no damage to plant) (Rates 250) | KCHSC damage rating (100=total damage to plant; 0=no damage to plant) (Rates 500) | LOLPE damage rating (100=total damage to plant; 0=no damage to plant) (Rates 250) | POLCO damage rating (100=total damage to plant; 0=no damage to plant) (Rates 130) | damage to plant (100=total damage to plant; 0=no damage to plant), BIDPI (rate 250, evaluated after 15 d)
0: BROTE damage rating (100=total damage to plant; 0=no damage to plant) (Rates 130) | GALAP damage rating (100=total damage to plant; 0=no damage to plant) (Rates 130) | LOLPE damage rating (100=total damage to plant; 0=no damage to plant) (Rates 130) | damage to plant (100=total damage to plant; 0=no damage to plant), ABUTH (rate 130, evaluated after 15 d) | damage to plant (100=total damage to plant; 0=no damage to plant), ABUTH (rate 250, evaluated after 15 d) | damage to plant (100=total damage to plant; 0=no damage to plant), AMARE (rate 130, evaluated after 15 d) | damage to plant (100=total damage to plant; 0=no damage to plant), AMARE (rate 250, evaluated after 15 d)
90: POAAN damage rating (100=total damage to plant; 0=no damage to plant) (Rates 250) | POAAN damage rating (100=total damage to plant; 0=no damage to plant) (Rates 500)
40: ALOMY damage rating (100=total damage to plant; 0=no damage to plant) (Rates 130) | BRSNN damage rating (100=total damage to plant; 0=no damage to plant) (Rates 130) | BRSNN damage rating (100=total damage to plant; 0=no damage to plant) (Rates 500) | CHEAL damage rating (100=total damage to plant; 0=no damage to plant) (Rates 500) | POLCO damage rating (100=total damage to plant; 0=no damage to plant) (Rates 500)
